From paper PMC2992812 (The Biochemical journal, 2010)

What was measured:
β2AR–TRHR chimaera = assay: Receptor internalization assay; type: cell-based, human β2AR / rat TRHR; conditions: stable HEK-293
TRHR–β2AR chimaera [1] = target: T1, TRHR–β2AR chimaera (Rattus norvegicus, UniProt Q01717); assay: Receptor internalization assay; type: cell-based, rat TRHR / human β2AR; conditions: 100 nM TRH, after 1 h, HEK-293
T1 sequence (Q01717 1-337): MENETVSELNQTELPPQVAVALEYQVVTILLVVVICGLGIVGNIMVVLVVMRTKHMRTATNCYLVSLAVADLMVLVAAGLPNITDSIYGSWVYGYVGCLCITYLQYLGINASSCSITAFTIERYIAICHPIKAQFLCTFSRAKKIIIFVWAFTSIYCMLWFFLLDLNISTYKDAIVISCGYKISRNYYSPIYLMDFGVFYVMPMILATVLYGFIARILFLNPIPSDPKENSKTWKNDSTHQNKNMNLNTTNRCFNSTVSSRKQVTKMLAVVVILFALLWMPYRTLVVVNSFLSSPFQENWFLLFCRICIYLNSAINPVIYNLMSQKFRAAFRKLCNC

TRHR [2] = target: T2, TRHR (Rattus norvegicus, UniProt Q01717); assay: Receptor internalization assay; type: cell-based; conditions: 100 nM TRH, after 1 h, HEK-293
T2 sequence (Q01717 1-412): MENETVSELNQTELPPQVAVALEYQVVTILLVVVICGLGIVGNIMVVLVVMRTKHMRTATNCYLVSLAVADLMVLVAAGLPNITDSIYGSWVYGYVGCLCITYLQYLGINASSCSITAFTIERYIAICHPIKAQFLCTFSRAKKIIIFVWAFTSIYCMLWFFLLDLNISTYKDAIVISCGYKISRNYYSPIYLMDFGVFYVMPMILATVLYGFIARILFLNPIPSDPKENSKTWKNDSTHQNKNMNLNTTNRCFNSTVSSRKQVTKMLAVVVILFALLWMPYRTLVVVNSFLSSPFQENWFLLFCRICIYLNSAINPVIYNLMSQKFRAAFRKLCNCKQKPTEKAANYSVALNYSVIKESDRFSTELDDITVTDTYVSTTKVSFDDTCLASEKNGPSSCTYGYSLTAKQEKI

TRHR [3] = target: T2, TRHR; assay: Fixed-cell ELISA, GRK site phosphorylation/dephosphorylation of TRHR tail; type: cell-based; conditions: EC50 (GRK site phosphorylation)
β2AR = β2AR (Homo sapiens, UniProt P07550); assay: Fixed-cell ELISA, PKA site; type: cell-based; conditions: 10 μM H89 pre-incubated 30 min and during 5 min with 1 μM isoprenaline
Chain of β2AR (P07550 whole entry): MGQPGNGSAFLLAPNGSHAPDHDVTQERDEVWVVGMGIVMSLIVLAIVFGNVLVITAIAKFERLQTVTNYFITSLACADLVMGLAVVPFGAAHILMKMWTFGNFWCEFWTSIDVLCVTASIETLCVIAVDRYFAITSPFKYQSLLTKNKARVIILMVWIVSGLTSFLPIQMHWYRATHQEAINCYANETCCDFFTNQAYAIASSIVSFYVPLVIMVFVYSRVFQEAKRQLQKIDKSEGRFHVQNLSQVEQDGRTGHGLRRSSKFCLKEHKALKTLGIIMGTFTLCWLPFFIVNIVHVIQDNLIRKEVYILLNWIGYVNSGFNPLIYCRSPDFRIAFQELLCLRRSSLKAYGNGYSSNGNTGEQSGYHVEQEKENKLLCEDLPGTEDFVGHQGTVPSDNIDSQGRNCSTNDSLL

TRHR–β2AR chimaera [4] = target: T1, TRHR–β2AR chimaera; assay: [methyl-3H]TRH binding to live cells; set-up: species or system rat TRHR / human β2AR; conditions: HEK-293, 90 min at 37°C, Scatchard analysis

CC(C)NCC(O)c1ccc(O)c(O)c1 (stereo not drawn) [isoprenaline]
More internalization at 1 μM than at 1 nM isoprenaline (β2AR–TRHR chimaera): 2 fold

NC(=O)[C@@H]1CCCN1C(=O)[C@H](Cc1cnc[nH]1)NC(=O)[C@@H]1CCC(=O)N1 [TRH, thyrotropin-releasing hormone]
Receptor internalized (TRHR–β2AR chimaera [1]): 40% | Receptor internalized (TRHR [2]): 60% | EC50 (TRHR [3]): 8 nM

O=S(=O)(NCCNC/C=C/c1ccc(Br)cc1)c1cccc2cnccc12 [H89]
Inhibition of isoprenaline-stimulated PKA site phosphorylation (β2AR): 80%

[methyl-3H]TRH
Affinity for [methyl-3H]TRH compared with wild-type TRHR (TRHR–β2AR chimaera [4]): reduced affinity
